These results are taken from ChEMBL document CHEMBL1146327, “Inhibitors of the FEZ-1 metallo-beta-lactamase” (Bioorg Med Chem Lett, 2007).

pKi: −log10 of the molar value. Calls of active or inactive are those of the source. No cut-off for these calls is given here. A value given as a limit tells only on which side of the number the result lay.

Assay [1] concerns the target Metallo-beta-lactamase type 2 (Pseudomonas aeruginosa) (UniProt Q7WYA8). Description: Inhibition of metallo-beta-lactamases IMP1 assessed as residual activity at 100 uM.
Assay [2] relates to Bacillus cereus. Description: Inhibition of metallo-beta-lactamases Bc2 assessed as residual activity at 100 uM.
Assay [3] concerns the target Metallo-beta-lactamase type 2 (Aeromonas hydrophila) (UniProt P26918). Description: Inhibition of metallo-beta-lactamases CphA assessed as residual activity at 100 uM.
The nature of assay [4]: Inhibition of metallo-beta-lactamases L1 assessed as residual activity at 100 uM.
In assay [5] the test system is Fluoribacter gormanii. Description: Inhibition of metallo-beta-lactamases FEZ1 assessed as residual activity at 100 uM.
Assay [6] deals with Fluoribacter gormanii. The assay can be described thus: (§1) Inhibition of metallo-beta-lactamases FEZ1. Further details: concentration or dose not given beside the values. Conditions: concentration not given here.
Assay [7] concerns the target Metallo-beta-lactamase type 2 (Aeromonas hydrophila) (UniProt P26918). Description: Inhibition of metallo-beta-lactamases CphA. Conditions: for inhibition: concentration not given here.
Assay [8] is described as follows: Inhibition of metallo-beta-lactamases L1. Conditions: for inhibition: concentration not given here.
For assay [9], the target named is Metallo-beta-lactamase type 2 (Pseudomonas aeruginosa) (UniProt Q7WYA8). Description: Inhibition of metallo-beta-lactamases IMP1. Conditions: for inhibition: concentration not given here.
Sequence of Metallo-beta-lactamase type 2 (Pseudomonas aeruginosa) (Q7WYA8 whole entry): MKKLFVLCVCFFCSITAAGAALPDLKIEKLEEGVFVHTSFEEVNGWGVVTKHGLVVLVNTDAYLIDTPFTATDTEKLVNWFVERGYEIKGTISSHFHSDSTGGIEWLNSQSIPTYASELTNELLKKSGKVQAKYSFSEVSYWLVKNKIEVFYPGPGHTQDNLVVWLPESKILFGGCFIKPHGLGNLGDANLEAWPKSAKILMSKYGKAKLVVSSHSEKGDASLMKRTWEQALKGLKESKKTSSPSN
Assay [10] deals with Bacillus cereus. Description: Inhibition of metallo-beta-lactamases Bc2. Conditions: for inhibition: concentration not given here.
Assay [11] can be described thus: as §1. Details: species or system Fluoribacter gormanii.

Sequence of Metallo-beta-lactamase type 2 (Aeromonas hydrophila) (P26918 whole entry): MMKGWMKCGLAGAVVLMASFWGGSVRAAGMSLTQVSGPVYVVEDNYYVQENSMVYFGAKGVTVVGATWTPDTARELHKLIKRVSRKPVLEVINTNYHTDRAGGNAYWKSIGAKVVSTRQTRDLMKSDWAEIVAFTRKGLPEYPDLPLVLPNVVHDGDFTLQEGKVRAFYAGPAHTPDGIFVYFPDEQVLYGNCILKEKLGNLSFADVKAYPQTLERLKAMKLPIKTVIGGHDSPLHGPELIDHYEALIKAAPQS

On to `O=C(NO)c1cc(O)cc(C(=O)N2CCCC2)c1`, for which the Activity in assay [1] was 85%; with Bacillus cereus [2], 100%; in assay [3] it was 86%; in assay [4], 92%; in the assay with Fluoribacter gormanii [5], 64%. Besides, in the assay with Fluoribacter gormanii [6], the inhibition worked out at 36%.
`O=C(NO)c1ccccc1`: the result (in assay [7]; in assay [8]; in [9]; with Bacillus cereus [10]) was inactive. For the same compound, the inhibition with Fluoribacter gormanii [6] was determined as 55%.
Turning to `CCN(CC)C(=O)c1cc(O)cc(C(=O)NO)c1`, the Activity in [1] was determined as 85%; with Bacillus cereus [2] it was 101%; in assay [3] it was 90%; in assay [4] it was 93%; in the assay on Fluoribacter gormanii [5], 66%. Further, the inhibition in the assay on Fluoribacter gormanii [6] was found to be 34%.
In the assay with Fluoribacter gormanii [6], `O=C(NO)c1ccc(O)cc1` had an inhibition of 53%.
With `O=C(NO)c1cc(O)cc(C(=O)NCc2ccccc2)c1`, the Activity in assay [1] came to 81%; in the assay on Bacillus cereus [2], 103%; in assay [3] it was 81%; in assay [4], 95%; with Fluoribacter gormanii [5], 46%. The inhibition in the assay on Fluoribacter gormanii [6] came out at 54%.
With `O=C(NO)c1cc(O)cc(O)c1`, the pKi in [11] is 4.88.
Turning to `O=C(NO)c1cc(O)cc(C(=O)c2ccc(O)cc2)c1`, the Activity in [1] stood at 83%; in the assay with Bacillus cereus [2] it was 91%; in assay [3], 84%; in assay [4] it was 102%; in the assay on Fluoribacter gormanii [5] it was 15%.
Regarding `CNC(=O)c1cc(O)cc(C(=O)NO)c1`, the Activity in [1] turned out to be 93%; in the assay with Bacillus cereus [2], 103%; in assay [3], 92%; in assay [4] it was 96%; in the assay with Fluoribacter gormanii [5], 47%. In the assay with Fluoribacter gormanii [6], this compound had an inhibition of 53%.
Turning to `O=C(O)c1cccc(C(=O)NO)c1`, the inhibition (in assay [7]; in assay [8]; in the assay with Fluoribacter gormanii [6]; in assay [9]; in the assay on Bacillus cereus [10]) was below 10% throughout.
Regarding `O=C(NO)c1cccc(O)c1`, in assay [11], the negative logarithm of the Ki (pKi) was 4.75. The compound also had an inhibition in the assay with Fluoribacter gormanii [6] of 64%.
For `O=C(O)CCC(=O)NO`, the inhibition (in assay [7]; in assay [8]; with Fluoribacter gormanii [6]; in assay [9]; in the assay on Bacillus cereus [10]) was below 10% each time.
`O=C(NO)c1cc(O)cc(C(=O)Nc2ccccc2)c1`: the Activity in [1] came out at 92%; with Bacillus cereus [2], 82%; in assay [3] it was 90%; in assay [4], 103%; with Fluoribacter gormanii [5], 42%. In the assay on Fluoribacter gormanii [6], the inhibition was determined as 58%.
Turning to `O=C(O)c1cc(O)cc(C(=O)NO)c1`, the Activity in [1] stood at 67%; with Bacillus cereus [2], 93%; in assay [3], 79%; in assay [4], 97%; in the assay with Fluoribacter gormanii [5] it was 92%.
Taken in the same sequence, the figures for `O=C(O)c1cc(O)cc(C(=O)c2ccc(O)cc2)c1` were 100%, 86%, 83%, 107% and 67%.
With `O=C(NO)c1ccccc1O`, in the assay with Fluoribacter gormanii [6], the inhibition turned out to be 45%.

In general, inhibition refers to the relative decrease from the control value, in per cent. By pKi is commonly meant the negative decadic logarithm of the Ki, by convention in mol/L.
